Patent publication US12568972B2, “Pyridazinol compounds and derivatives, preparation methods, herbicidal compositions and applications thereof” (Qingdao Kingagroot Chemical Compound Co., Ltd., priority 2018, dated 2026)

How the values were obtained:
Test in all cases: Post-emergence test, weed control effect
Type in all cases: in vivo
Conditions in all cases: after 3 weeks
Rorippa indica = system: Rorippa indica
Summary of the method: (§1)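 Greenhouse pots, soil-sown, 0.5-2 cm cover; foliar spray at 2-3 leaf stage (2-3 wk post-sowing); cpd in acetone + Tween-80, water-diluted, + 80% veg. oil methyl ester synergist 1500 g/ha; 3 wk culture; fresh-wt inhibition graded 0-10.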

Chenopodiaceae = system: Chenopodiaceae
Summary of the method: as §1

Amaranthus retroflexus = system: Amaranthus retroflexus
Summary of the method: as §1

Veronica polita = system: Veronica polita
Summary of the method: as §1

CCCn1cc(-c2nnc(C(F)(F)F)cc2O)cn1 [Compound 546]
10: weed control effect (activity level), Rorippa indica (Rorippa indica; Dose 3000 g/ha) | weed control effect (activity level), Chenopodiaceae (Chenopodiaceae; Dose 3000 g/ha) | weed control effect (activity level), Amaranthus retroflexus (Amaranthus retroflexus; Dose 3000 g/ha) | weed control effect (activity level), Veronica polita (Veronica polita; Dose 3000 g/ha)

Oc1cc(C(F)(F)F)nnc1-c1cn2ncccc2n1 [Compound 570]
10: weed control effect (activity level), Rorippa indica (Rorippa indica; Dose 3000 g/ha) | weed control effect (activity level), Chenopodiaceae (Chenopodiaceae; Dose 3000 g/ha) | weed control effect (activity level), Amaranthus retroflexus (Amaranthus retroflexus; Dose 3000 g/ha) | weed control effect (activity level), Veronica polita (Veronica polita; Dose 3000 g/ha)

Oc1cc(C(F)(F)F)nnc1-c1ccc2cc[nH]c2c1 [Compound 588]
10: weed control effect (activity level), Rorippa indica (Rorippa indica; Dose 3000 g/ha) | weed control effect (activity level), Chenopodiaceae (Chenopodiaceae; Dose 3000 g/ha) | weed control effect (activity level), Amaranthus retroflexus (Amaranthus retroflexus; Dose 3000 g/ha) | weed control effect (activity level), Veronica polita (Veronica polita; Dose 3000 g/ha)

Oc1cc(C(F)(F)F)nnc1-c1cccc2cc[nH]c12 [Compound 589]
10: weed control effect (activity level), Rorippa indica (Rorippa indica; Dose 3000 g/ha) | weed control effect (activity level), Chenopodiaceae (Chenopodiaceae; Dose 3000 g/ha) | weed control effect (activity level), Amaranthus retroflexus (Amaranthus retroflexus; Dose 3000 g/ha) | weed control effect (activity level), Veronica polita (Veronica polita; Dose 3000 g/ha)

Oc1cc(C(F)(F)F)nnc1-c1cc2ccccc2s1 [Compound 594]
10: weed control effect (activity level), Rorippa indica (Rorippa indica; Dose 3000 g/ha) | weed control effect (activity level), Chenopodiaceae (Chenopodiaceae; Dose 3000 g/ha) | weed control effect (activity level), Amaranthus retroflexus (Amaranthus retroflexus; Dose 3000 g/ha) | weed control effect (activity level), Veronica polita (Veronica polita; Dose 3000 g/ha)

Oc1cc(C(F)(F)F)nnc1-c1ccc2occc2c1 [Compound 595]
10: weed control effect (activity level), Rorippa indica (Rorippa indica; Dose 3000 g/ha) | weed control effect (activity level), Chenopodiaceae (Chenopodiaceae; Dose 3000 g/ha) | weed control effect (activity level), Amaranthus retroflexus (Amaranthus retroflexus; Dose 3000 g/ha) | weed control effect (activity level), Veronica polita (Veronica polita; Dose 3000 g/ha)

Cc1nc2cc(-c3nnc(C(F)(F)F)cc3O)ccc2o1 [Compound 597]
10: weed control effect (activity level), Rorippa indica (Rorippa indica; Dose 3000 g/ha) | weed control effect (activity level), Chenopodiaceae (Chenopodiaceae; Dose 3000 g/ha) | weed control effect (activity level), Amaranthus retroflexus (Amaranthus retroflexus; Dose 3000 g/ha) | weed control effect (activity level), Veronica polita (Veronica polita; Dose 3000 g/ha)

Oc1cc(C(F)(F)F)nnc1-c1cc2ccccc2o1 [Compound 613]
10: weed control effect (activity level), Rorippa indica (Rorippa indica; Dose 3000 g/ha) | weed control effect (activity level), Chenopodiaceae (Chenopodiaceae; Dose 3000 g/ha) | weed control effect (activity level), Amaranthus retroflexus (Amaranthus retroflexus; Dose 3000 g/ha) | weed control effect (activity level), Veronica polita (Veronica polita; Dose 3000 g/ha)

Oc1cc(C(F)(F)F)nnc1-c1ccc2cnccc2c1 [Compound 634]
10: weed control effect (activity level), Rorippa indica (Rorippa indica; Dose 3000 g/ha) | weed control effect (activity level), Chenopodiaceae (Chenopodiaceae; Dose 3000 g/ha) | weed control effect (activity level), Amaranthus retroflexus (Amaranthus retroflexus; Dose 3000 g/ha) | weed control effect (activity level), Veronica polita (Veronica polita; Dose 3000 g/ha)

Oc1cc(C(F)(F)F)nnc1-c1cccc2cnccc12 [Compound 636]
10: weed control effect (activity level), Rorippa indica (Rorippa indica; Dose 3000 g/ha) | weed control effect (activity level), Chenopodiaceae (Chenopodiaceae; Dose 3000 g/ha) | weed control effect (activity level), Amaranthus retroflexus (Amaranthus retroflexus; Dose 3000 g/ha) | weed control effect (activity level), Veronica polita (Veronica polita; Dose 3000 g/ha)

Oc1cc(C(F)(F)F)nnc1-c1cncc2ccccc12 [Compound 637]
10: weed control effect (activity level), Rorippa indica (Rorippa indica; Dose 3000 g/ha) | weed control effect (activity level), Chenopodiaceae (Chenopodiaceae; Dose 3000 g/ha) | weed control effect (activity level), Amaranthus retroflexus (Amaranthus retroflexus; Dose 3000 g/ha) | weed control effect (activity level), Veronica polita (Veronica polita; Dose 3000 g/ha)

Oc1cc(C(F)(F)F)nnc1-c1ccc2ncccc2c1 [Compound 714]
10: weed control effect (activity level), Rorippa indica (Rorippa indica; Dose 3000 g/ha) | weed control effect (activity level), Chenopodiaceae (Chenopodiaceae; Dose 3000 g/ha) | weed control effect (activity level), Amaranthus retroflexus (Amaranthus retroflexus; Dose 3000 g/ha) | weed control effect (activity level), Veronica polita (Veronica polita; Dose 3000 g/ha)

Oc1cc(C(F)(F)F)nnc1-c1ccc2cccnc2c1 [Compound 723]
10: weed control effect (activity level), Rorippa indica (Rorippa indica; Dose 3000 g/ha) | weed control effect (activity level), Chenopodiaceae (Chenopodiaceae; Dose 3000 g/ha) | weed control effect (activity level), Amaranthus retroflexus (Amaranthus retroflexus; Dose 3000 g/ha) | weed control effect (activity level), Veronica polita (Veronica polita; Dose 3000 g/ha)

Oc1cc(C(F)(F)F)nnc1-c1ccc(F)cc1F [Compound 732]
10: weed control effect (activity level), Rorippa indica (Rorippa indica; dose 1000 g/ha) | weed control effect (activity level), Chenopodiaceae (Chenopodiaceae; dose 1000 g/ha) | weed control effect (activity level), Amaranthus retroflexus (Amaranthus retroflexus; dose 1000 g/ha) | weed control effect (activity level), Veronica polita (Veronica polita; dose 1000 g/ha)

Oc1cc(C(F)(F)F)nnc1-c1cccc2cccnc12 [Compound 734]
10: weed control effect (activity level), Rorippa indica (Rorippa indica; dose 1000 g/ha) | weed control effect (activity level), Chenopodiaceae (Chenopodiaceae; dose 1000 g/ha) | weed control effect (activity level), Amaranthus retroflexus (Amaranthus retroflexus; dose 1000 g/ha) | weed control effect (activity level), Veronica polita (Veronica polita; dose 1000 g/ha)

Cc1cccc(C2CC2)c1-c1nnc(C(F)(F)F)cc1O [Compound 735]
10: weed control effect (activity level), Rorippa indica (Rorippa indica; dose 1000 g/ha) | weed control effect (activity level), Chenopodiaceae (Chenopodiaceae; dose 1000 g/ha) | weed control effect (activity level), Amaranthus retroflexus (Amaranthus retroflexus; dose 1000 g/ha) | weed control effect (activity level), Veronica polita (Veronica polita; dose 1000 g/ha)

Oc1cc(C(F)(F)F)nnc1-c1cccc(F)c1 [Compound 736]
10: weed control effect (activity level), Rorippa indica (Rorippa indica; dose 1000 g/ha) | weed control effect (activity level), Chenopodiaceae (Chenopodiaceae; dose 1000 g/ha) | weed control effect (activity level), Amaranthus retroflexus (Amaranthus retroflexus; dose 1000 g/ha) | weed control effect (activity level), Veronica polita (Veronica polita; dose 1000 g/ha)

Oc1cc(C(F)(F)F)nnc1-c1ccccc1C(F)(F)F [Compound 737]
10: weed control effect (activity level), Rorippa indica (Rorippa indica; Dose 3000 g/ha) | weed control effect (activity level), Chenopodiaceae (Chenopodiaceae; Dose 3000 g/ha) | weed control effect (activity level), Amaranthus retroflexus (Amaranthus retroflexus; Dose 3000 g/ha) | weed control effect (activity level), Veronica polita (Veronica polita; Dose 3000 g/ha)

COc1c(Cl)ccc(-c2nnc(C(F)(F)F)cc2O)c1F [Compound 741]
10: weed control effect (activity level), Rorippa indica (Rorippa indica; Dose 3000 g/ha) | weed control effect (activity level), Chenopodiaceae (Chenopodiaceae; Dose 3000 g/ha) | weed control effect (activity level), Amaranthus retroflexus (Amaranthus retroflexus; Dose 3000 g/ha) | weed control effect (activity level), Veronica polita (Veronica polita; Dose 3000 g/ha)

N#Cc1cccc(-c2nnc(C(F)(F)F)cc2O)c1 [Compound 742]
10: weed control effect (activity level), Rorippa indica (Rorippa indica; Dose 3000 g/ha) | weed control effect (activity level), Chenopodiaceae (Chenopodiaceae; Dose 3000 g/ha) | weed control effect (activity level), Amaranthus retroflexus (Amaranthus retroflexus; Dose 3000 g/ha) | weed control effect (activity level), Veronica polita (Veronica polita; Dose 3000 g/ha)

Oc1cc(C(F)(F)F)nnc1-c1cc2ccccc2cn1 [Compound 743]
10: weed control effect (activity level), Rorippa indica (Rorippa indica; Dose 3000 g/ha) | weed control effect (activity level), Chenopodiaceae (Chenopodiaceae; Dose 3000 g/ha) | weed control effect (activity level), Amaranthus retroflexus (Amaranthus retroflexus; Dose 3000 g/ha) | weed control effect (activity level), Veronica polita (Veronica polita; Dose 3000 g/ha)

Oc1cc(C(F)(F)F)nnc1-c1ccc(Cl)c(F)c1 [Compound 745]
10: weed control effect (activity level), Rorippa indica (Rorippa indica; Dose 3000 g/ha) | weed control effect (activity level), Chenopodiaceae (Chenopodiaceae; Dose 3000 g/ha) | weed control effect (activity level), Amaranthus retroflexus (Amaranthus retroflexus; Dose 3000 g/ha) | weed control effect (activity level), Veronica polita (Veronica polita; Dose 3000 g/ha)

Oc1cc(C(F)(F)F)nnc1-c1ccc(C(F)(F)F)cc1 [Compound 746]
10: weed control effect (activity level), Rorippa indica (Rorippa indica; Dose 3000 g/ha) | weed control effect (activity level), Chenopodiaceae (Chenopodiaceae; Dose 3000 g/ha) | weed control effect (activity level), Amaranthus retroflexus (Amaranthus retroflexus; Dose 3000 g/ha) | weed control effect (activity level), Veronica polita (Veronica polita; Dose 3000 g/ha)

Oc1cc(C(F)(F)F)nnc1-c1ccc(Cl)c(Cl)c1Cl [Compound 753]
10: weed control effect (activity level), Rorippa indica (Rorippa indica; Dose 3000 g/ha) | weed control effect (activity level), Chenopodiaceae (Chenopodiaceae; Dose 3000 g/ha) | weed control effect (activity level), Amaranthus retroflexus (Amaranthus retroflexus; Dose 3000 g/ha) | weed control effect (activity level), Veronica polita (Veronica polita; Dose 3000 g/ha)

O=[N+]([O-])c1cc(-c2nnc(C(F)(F)F)cc2O)ccc1Br [Compound 755]
10: weed control effect (activity level), Rorippa indica (Rorippa indica; Dose 3000 g/ha) | weed control effect (activity level), Chenopodiaceae (Chenopodiaceae; Dose 3000 g/ha) | weed control effect (activity level), Amaranthus retroflexus (Amaranthus retroflexus; Dose 3000 g/ha) | weed control effect (activity level), Veronica polita (Veronica polita; Dose 3000 g/ha)

Oc1cc(C(F)(F)F)nnc1-c1cccc(C(F)(F)F)c1F [Compound 761]
10: weed control effect (activity level), Rorippa indica (Rorippa indica; Dose 3000 g/ha) | weed control effect (activity level), Chenopodiaceae (Chenopodiaceae; Dose 3000 g/ha) | weed control effect (activity level), Amaranthus retroflexus (Amaranthus retroflexus; Dose 3000 g/ha) | weed control effect (activity level), Veronica polita (Veronica polita; Dose 3000 g/ha)

Oc1cc(C(F)(F)F)nnc1-c1ccc(C(F)(F)F)nc1 [Compound 762]
10: weed control effect (activity level), Rorippa indica (Rorippa indica; Dose 3000 g/ha) | weed control effect (activity level), Chenopodiaceae (Chenopodiaceae; Dose 3000 g/ha) | weed control effect (activity level), Amaranthus retroflexus (Amaranthus retroflexus; Dose 3000 g/ha) | weed control effect (activity level), Veronica polita (Veronica polita; Dose 3000 g/ha)

Oc1cc(C(F)(F)F)nnc1-c1ccc(Cl)cc1C(F)(F)F [Compound 763]
10: weed control effect (activity level), Rorippa indica (Rorippa indica; Dose 3000 g/ha) | weed control effect (activity level), Chenopodiaceae (Chenopodiaceae; Dose 3000 g/ha) | weed control effect (activity level), Amaranthus retroflexus (Amaranthus retroflexus; Dose 3000 g/ha) | weed control effect (activity level), Veronica polita (Veronica polita; Dose 3000 g/ha)

Oc1cc(C(F)(F)F)nnc1-c1ccc(F)cc1C(F)(F)F [Compound 764]
10: weed control effect (activity level), Rorippa indica (Rorippa indica; Dose 3000 g/ha) | weed control effect (activity level), Chenopodiaceae (Chenopodiaceae; Dose 3000 g/ha) | weed control effect (activity level), Amaranthus retroflexus (Amaranthus retroflexus; Dose 3000 g/ha) | weed control effect (activity level), Veronica polita (Veronica polita; Dose 3000 g/ha)

Oc1cc(C(F)(F)F)nnc1-c1cccc(F)c1F [Compound 766]
10: weed control effect (activity level), Rorippa indica (Rorippa indica; Dose 3000 g/ha) | weed control effect (activity level), Chenopodiaceae (Chenopodiaceae; Dose 3000 g/ha) | weed control effect (activity level), Amaranthus retroflexus (Amaranthus retroflexus; Dose 3000 g/ha) | weed control effect (activity level), Veronica polita (Veronica polita; Dose 3000 g/ha)

COc1ccc(-c2nnc(C(F)(F)F)cc2O)cc1[N+](=O)[O-] [Compound 768]
10: weed control effect (activity level), Rorippa indica (Rorippa indica; Dose 3000 g/ha) | weed control effect (activity level), Chenopodiaceae (Chenopodiaceae; Dose 3000 g/ha) | weed control effect (activity level), Amaranthus retroflexus (Amaranthus retroflexus; Dose 3000 g/ha) | weed control effect (activity level), Veronica polita (Veronica polita; Dose 3000 g/ha)
